Experimental data from US20160367515A1, “Improved delivery of poorly water soluble drugs with aphafetoprotein stabilized with metal ions” (Oy Safemed Ltd., priority 2013, published 2016).

System: human hepatoma HepG2 cells
Test: MTS cell viability assay, hepatoma HepG2 cells
Type: cell-based
Settings: HepG2, 48 h
Protocol: Tumor cell lines: human mammary carcinoma MCF-7, human hepatoma HepG2, and rat glioma C6—were originated from the American Type Culture Collection (ATCC). All cell lines were maintained in the complete DMEM or RPMI-1640 media supplemented with L-glutamine and 10% fetal calf serum (FCS) in humidified 5% CO2 atmosphere. For a passage, adherent cells were incubated in the EDTA/0.25% trypsin solution, then washed and plated out for experiments. Prior to addition of reagents, cells were washed with the fresh media with 2% FCS, plated onto 96-well polystyrene plates (Costar, USA) at a density of 3×10^3 cell/well in 180 μL of complete medium with 2% FCS and incubated for 2 h. […] Cell proliferation was assessed by [^3H]-thymidine (^3H-TdR) incorporation assay. […] Cells were harvested and the ^3H-TdR incorporation was measured by using the liquid scintillation counter LKB 1209 Rackbeta (LKB, Sweden). Results were expressed as mean counts per minute (cpm)±standard error of the mean of triplicate cultures or as a percentage of ^3H-TdR incorporation in the experimental cell cultures relatively to the untreated control, as described (Semenkova et al., Tumour Biol. 1997; 18: 261-74).
Cell viability was assessed by the Promega CellTiter 96 AQueous Non-Radioactive Cell Proliferation MTS assay (Promega, USA) according to manufacturer's instructions. […]

Question: `CC(=O)O[C@H]1C(=O)[C@@]2(C)[C@H]([C@H](OC(=O)c3ccccc3)[C@]3(O)C[C@H](OC(=O)[C@H](O)[C@@H](NC(=O)c4ccccc4)c4ccccc4)C(C)=C1C3(C)C)[C@]1(OC(C)=O)CO[C@@H]1C[C@@H]2O` [Ptx, paclitaxel] was tested. Which “sensitivity of HepG2 cells (chemoresistance)” value did it give?
Answer: complete resistance
